Values of other authors as cited in US20230285429A1, “CANNABINOID ACID FORMULATIONS, DELIVERY SYSTEMS, AND METHODS OF USE” (Flora Growth U.S. Holdings Corp., priority 2022, published 2023).

System: pseudovirus expressing the spike protein
Settings: human epithelial cell lines, CBGA or CBDA individually

Row | SMILES | infection by pseudovirus expressing the spike protein
1 | C=C(C)[C@@H]1CCC(C)=C[C@H]1c1c(O)cc(CCCCC)c(C(=O)O)c1O [CBDA, cannabidiolic acid] | reduce infection
2 | CCCCCc1cc(O)c(C/C=C(\C)CCC=C(C)C)c(O)c1C(=O)O [CBGA, cannabigerolic acid] | reduce infection
